Measurements taken from patent US20160355530A1, “HEPATITIS C INHIBITORS AND USES THEREOF” (AbbVie Inc., priority 2010, published 2016).
pEC50, pIC50: −log10 of the molar value. Like-named read-outs stand apart in the source and are kept apart here.

What was measured:
[1] = tested on: HCV NS5B polymerase 1a-H77-C316Y; experiment: biochemical; parameters: species or system HCV genotype 1a; settings: ratio of enzyme IC50s, 1a H77-C316Y / 1a H77
In short: (§1)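 E. coli-expressed NS5B (residues 1-570, His-tagged) transcribed a 2.1 kb HCV 1b negative-strand 3′-end RNA template (5 nM) with 20 μM CTP, 20 μM ATP and 0.284 μM [3H]UTP for 3 h at 30° C. Spermine-precipitated RNA was filter-captured and counted by scintillation; IC50 from nonlinear regression.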

[2] = molecular target: T1, HCV NS5B polymerase 1a-H77 (Hepatitis C virus genotype 1a, UniProt P27958); experiment: biochemical; parameters: species or system HCV genotype 1a; settings: enzyme, strain 1a H77; read-out: HCV Polymerase Strain 1a H77 IC50
T1 construct: six-histidine tag; made in house; host or cells: E. coli
In short: as §1

[3] = molecular target: T2, HCV NS5B polymerase 1a-H77-C316Y (Hepatitis C virus genotype 1a, UniProt P27958, C2736Y); experiment: biochemical; parameters: species or system HCV genotype 1a
T2 construct: six-histidine tag; made in house; host or cells: E. coli
In short: as §1

[4] = tested on: HCV 1a-H77 subgenomic replicon; experiment: microbe, parasite or virus in culture; format: cell-based, HCV genotype 1a; settings: Hepatitis C virus, stable replicon
[5] = tested on: HCV 1b-BB7 subgenomic replicon; experiment: microbe, parasite or virus in culture; format: cell-based, HCV genotype 1b; settings: Hepatitis C virus, stable replicon
[6] = tested on: chimeric replicon with genotype 3a NS5B; experiment: microbe, parasite or virus in culture; format: cell-based, HCV genotype 3a; settings: Hepatitis C virus, read-out: 3a chimera 5% FBS EC50
[7] = molecular target: T3, HCV NS5B polymerase 1b BK strain (Hepatitis C virus genotype 1b, UniProt P26663); experiment: HCV NS5B polymerase enzymatic inhibition assay, strain 1b BK; format: biochemical; settings: enzyme, strain 1b BK; read-out: HCV Polymerase Strain 1b BK IC50
T3 construct: six-histidine tag; made in house; host or cells: E. coli
In short: as §1

[8] = tested on: chimeric replicon with 2a-J6CF-derived NS5B; experiment: microbe, parasite or virus in culture; format: cell-based, HCV genotype 2a; settings: Hepatitis C virus, read-out: 2a chimera 5% FBS EC50
[9] = tested on: chimeric replicon with genotype 2b NS5B; experiment: microbe, parasite or virus in culture; format: cell-based, HCV genotype 2b; settings: Hepatitis C virus, read-out: 2b chimera 5% FBS EC50
[10] = tested on: chimeric replicon with genotype 4a NS5B; experiment: microbe, parasite or virus in culture; format: cell-based, HCV genotype 4a; settings: Hepatitis C virus, read-out: 4a chimera 5% FBS EC50
[11] = 5% FBS, absence of human plasma, read-out: Stable Replicon 1a H77 5% FBS EC50
[12] = strain 1a H77, 5% FBS + 40% human plasma, read-out: 1a H77 5% FBS + 40% Human Plasma EC50
[13] = strain 1a H77, 5% FBS, no human plasma, read-out: 1a H77 5% FBS EC50
[14] = strain 1a H77, 5% FBS, read-out: 1a H77 5% FBS EC50
[15] = strain 1b BB7, 5% FBS + 40% human plasma, read-out: 1b BB7 5% FBS + 40% Human Plasma EC50
[16] = strain 1b BB7, 5% FBS, no human plasma, read-out: 1b BB7 5% FBS EC50
[17] = strain 1b BB7, 5% FBS, read-out: 1b BB7 5% FBS EC50

T2 sequence (P27958 2421-2990 C2736Y): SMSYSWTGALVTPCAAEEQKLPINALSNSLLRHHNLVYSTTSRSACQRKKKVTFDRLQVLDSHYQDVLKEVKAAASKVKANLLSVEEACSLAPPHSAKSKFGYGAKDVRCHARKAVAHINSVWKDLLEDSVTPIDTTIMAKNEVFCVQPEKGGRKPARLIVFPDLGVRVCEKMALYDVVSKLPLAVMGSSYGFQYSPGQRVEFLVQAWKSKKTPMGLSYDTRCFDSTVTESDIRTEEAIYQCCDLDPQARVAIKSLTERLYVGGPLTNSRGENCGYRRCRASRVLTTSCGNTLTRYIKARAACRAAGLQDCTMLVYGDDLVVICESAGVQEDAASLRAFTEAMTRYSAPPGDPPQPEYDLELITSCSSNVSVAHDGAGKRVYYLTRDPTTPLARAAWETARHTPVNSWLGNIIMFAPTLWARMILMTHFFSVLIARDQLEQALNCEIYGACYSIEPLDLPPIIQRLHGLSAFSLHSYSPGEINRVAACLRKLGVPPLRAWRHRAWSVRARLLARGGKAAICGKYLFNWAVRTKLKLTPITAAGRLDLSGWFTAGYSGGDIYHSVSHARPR
T1 sequence (P27958 2421-2990): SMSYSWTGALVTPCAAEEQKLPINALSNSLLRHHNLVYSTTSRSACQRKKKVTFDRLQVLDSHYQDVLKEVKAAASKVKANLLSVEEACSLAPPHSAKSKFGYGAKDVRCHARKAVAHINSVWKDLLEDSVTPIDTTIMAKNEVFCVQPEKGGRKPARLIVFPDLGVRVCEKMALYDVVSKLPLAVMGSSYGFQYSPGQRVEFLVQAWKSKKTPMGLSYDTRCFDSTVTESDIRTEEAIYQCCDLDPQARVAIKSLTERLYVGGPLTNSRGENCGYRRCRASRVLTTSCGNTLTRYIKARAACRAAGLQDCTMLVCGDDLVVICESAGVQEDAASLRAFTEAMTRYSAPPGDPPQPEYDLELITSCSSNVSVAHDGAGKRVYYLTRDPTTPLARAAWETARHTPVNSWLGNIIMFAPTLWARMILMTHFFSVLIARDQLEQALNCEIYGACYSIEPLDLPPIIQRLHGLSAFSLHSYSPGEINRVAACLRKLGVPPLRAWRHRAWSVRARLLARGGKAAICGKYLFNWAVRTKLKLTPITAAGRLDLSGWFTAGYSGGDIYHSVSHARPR
T3 sequence (P26663 2420-2989): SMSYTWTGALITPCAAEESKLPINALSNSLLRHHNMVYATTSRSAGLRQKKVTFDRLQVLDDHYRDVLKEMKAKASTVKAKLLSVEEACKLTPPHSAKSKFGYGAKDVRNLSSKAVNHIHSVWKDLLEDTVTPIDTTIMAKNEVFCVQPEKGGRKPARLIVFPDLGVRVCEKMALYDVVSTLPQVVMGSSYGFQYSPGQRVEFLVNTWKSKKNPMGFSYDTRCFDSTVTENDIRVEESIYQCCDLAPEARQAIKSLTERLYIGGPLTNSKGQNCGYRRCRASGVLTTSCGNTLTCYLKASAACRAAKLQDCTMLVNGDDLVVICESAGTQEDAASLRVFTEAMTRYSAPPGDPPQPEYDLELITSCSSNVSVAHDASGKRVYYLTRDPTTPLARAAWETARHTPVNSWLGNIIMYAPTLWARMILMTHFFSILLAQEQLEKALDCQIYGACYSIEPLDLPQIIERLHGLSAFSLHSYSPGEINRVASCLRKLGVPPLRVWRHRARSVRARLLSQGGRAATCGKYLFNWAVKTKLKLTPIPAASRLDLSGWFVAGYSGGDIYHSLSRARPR

SMILES | C316Y/1a Fold Resistance [1] | pIC50 [2] | pIC50 [3] | pEC50 [4, 11] | pEC50 [4, 12] | pEC50 [4, 13] | pEC50 [4, 14] | pEC50 [5, 15] | pEC50 [5, 16] | pEC50 [5, 17] | pEC50 [6] | pIC50 [7] | pEC50 [8] | pEC50 [9] | pEC50 [10]
CS(=O)(=O)N(CCCS(=O)(=O)N1CCOCC1)c1cc2oc(-c3ccc(F)cc3)c(-c3ncc[nH]3)c2cc1C1CC1 [Example 79, N-[5-cyclopropyl-2-(4-fluorophenyl)-3-(1H-imidazol-2-yl)-1-benzofuran-6-yl]-N-[3-(morpholin-4-ylsulfonyl)propyl]methanesulfonamide] | 26 fold | 8.26 | 6.85 | 7.83 | 6.93 | 7.83 | 7.83 | 7.21 | 8.16 | 8.16 | 7.94 | 7.70 | 7.04 | 7.00 | 7.14
CS(=O)(=O)N(CCCF)c1cc2oc(-c3ccc(F)cc3)c(-c3ncc[nH]3)c2cc1C1CC1 [Example 85, N-[5-cyclopropyl-2-(4-fluorophenyl)-3-(1H-imidazol-2-yl)-1-benzofuran-6-yl]-N-(3-fluoropropyl)methanesulfonamide] | 20 fold | 8.35 | 7.06 | 7.66 | 6.79 | 7.66 | 7.66 | 7.02 | 8.01 | 8.01 | 8.19 | 7.74 | 7.18 | 6.88 | 7.13
CS(=O)(=O)NCCCN(c1cc2oc(-c3ccc(F)cc3)c(-c3ncc[nH]3)c2cc1C1CC1)S(C)(=O)=O [Example 95, N-[5-cyclopropyl-2-(4-fluorophenyl)-3-(1H-imidazol-2-yl)-1-benzofuran-6-yl]-N-{3-[(methylsulfonyl)amino]propyl}methanesulfonamide] | 19 fold | 8.35 | 7.07 | 7.95 | 6.92 | 7.95 | 7.95 | 7.12 | 8.32 | 8.32 | 8.24 | 7.89 | 7.48 | 7.09 | 7.34
CN(C)C(=O)CCCN(c1cc2oc(-c3ccc(F)cc3)c(-c3ncc[nH]3)c2cc1C1CC1)S(C)(=O)=O [Example 102, 4-{[5-cyclopropyl-2-(4-fluorophenyl)-3-(1H-imidazol-2-yl)-1-benzofuran-6-yl](methylsulfonyl)amino}-N,N-dimethylbutanamide] | 22 fold | 8.11 | 6.77 | 7.62 | 6.62 | 7.62 | 7.62 | 7.18 | 8.00 | 8.00 | 8.01 | 7.33 | 6.97 | 6.87 | 6.84
CNC(=O)CCCN(c1cc2oc(-c3ccc(F)cc3)c(-c3ncc[nH]3)c2cc1C1CC1)S(C)(=O)=O [Example 107, 4-{[5-cyclopropyl-2-(4-fluorophenyl)-3-(1H-imidazol-2-yl)-1-benzofuran-6-yl](methylsulfonyl)amino}-N-methylbutanamide] | 22 fold | 8.26 | 6.91 | 7.76 | 7.09 | 7.76 | 7.76 | 7.18 | 7.96 | 7.96 | 8.03 | 7.55 | 6.87 | 6.85 | 6.89
